In patent US20100297265A1, “Optimal compositions and methods for treating oral disease and pain” (priority 2009, published 2010):
Read-outs that look alike come from different tables or passages of the source.

Tests used:
[1] = tested on: Streptococcus mutans strain ATCC 25175; experiment: S. mutans growth in TS media with cesium/sodium salts (OD 600 nm, doubling time); assay type: cell-based; conditions: for inhibition of culture growth rates: nitrate salt, tested at 25-100 mM; for colonies on TS-agar plate: 50 μL of 100 mM salt culture spread onto TS-agar plate; for Minimum Inhibitory Concentration (MIC): Lineweaver-Burke plot of growth data
Experimental: (§1) Streptococcus mutans strain ATCC 25175 was obtained from American Type Culture Collection in the freeze-dried state. Cells were rehydrated in a trypticase soy-yeast extract media (30 g trypticase soy broth and 3 g yeast extract per liter mqH2O; TS media). The bacteria were grown overnight at 37° C., shaking at 60 rpm in 50 mL broth. For routine propagation of the strain, S. mutans was grown on trypticase soy agar plates, TS media with 15 g/L agar. Escherichia coli strain K12 was grown as a representative enteric bacteria in LB broth (10 g tryptone, 5 g yeast extract and 10 g NaCl per liter mqH2O).
To assess the toxicity of cesium chloride, growth rates were calculated from cultures grown in the absence and presence of cesium chloride with sodium chloride added to controls to maintain consistent ionic strength. The first growth curves conducted used duplicate cultures of 50 mL TS media in 125 mL flasks with foam stoppers. The media was inoculated with 1 mL of the starter culture (2% inoculum) and the optical density was measured at 600 nm. Two conditions were initially tested: 100 mM CsCl and 100 mM NaCl.
(§2) An increasing gradient of CsCl concentrations was examined to see how bacterial growth rate varies with salt concentration. Concentrations of 0 mM, 5 mM, 10 mM, 25 mM, 50 mM, 75 mM and 100 mM CsCl were tested; NaCl was used to counter balance control in order to maintain constant ion concentrations.
Additional cesium salts were used to assess alternate inhibitors of S. mutans cultures. Cesium salts of hydroxide, formate, bicarbonate, sulfate, nitrate, fluoride, and iodide were obtained from Fisher Scientific. Growth rates of S. mutans were monitored with 0 mM, 25 mM, 50 mM, and 100 mM cesium salt in TS broth. Control cultures were grown with sodium hydroxide, bicarbonate, nitrate, and sulfate at 0 mM, 25 mM, 50 mM, and 100 mM.
To investigate the inhibition of S. mutans by cesium chloride, growth in the presence and absence of CsCl was compared. Ions were balanced with NaCl in all cultures to a final concentration of 100 mM of supplemental cations added to the media (i.e., for 75 mM CsCl, 25 mM NaCl was added to bring the total concentration of supplemental cation to 100 mM). All data is presented in optical density absorbance measurements at 600 nm, or doubling times (the length of time it takes for a culture to double in time).

[2] = tested on: Escherichia coli strain K12; experiment: E. coli K12 growth in LB broth with CsCl; assay type: cell-based
Experimental: as §1
as §2, with “concentrations. Additional gradient growth curves with 0 mM, 20 mM, 30 mM, 40 mM and 50 mM CsCl were conducted to refine the inhibition profile of S. mutans.” for “concentrations.”

[3] = tested on: E. coli potassium channel mutants (Kch JW1242, TrkG JW1358, TrkH JW5576, KdpA JW0686); experiment: Growth of E. coli potassium channel mutants with CsCl; assay type: cell-based, Escherichia coli
Experimental: In order to better understand the mechanism of inhibition, the following potassium channel mutants of E. coli from the Keio collection were obtained from the Coli Genetic Stock Center at Yale University: Kch mutant JW 1242-1, TrkG mutant JW 1358-1, TrkH mutant JW 5576-1, and KdpA mutant JW686-5. Mutant E. coli strains were grown in LB broth in the presence or absence of CsCl (either 0 mM, 50 mM, or 100 mM CsCl) to assess the role of potassium transport channels in cesium inhibition.
It was hypothesized that, as a larger monovalent cation, cesium could block potassium channels, thereby blocking the uptake of potassium into the cell and retarding cell growth. Strains of E. coli with non-essential genes knocked out were acquired from the Yale Coli Genetic Stock Center. Four mutants were chosen: JW0686, a KdpA mutant, a cesium inducible potassium transporting ATPase; JW1242, a Kch mutant, a conductive potassium transporter; JW1358, a TrkG mutant, a transmembrane component of the Trk potassium uptake system; JW5576, a TrkH mutant, a transmembrane component of the Trk potassium uptake system. TrkG and TrkH determine the specificity of the Trk protein. Because of their similarity (i.e., 41% nucleotide homology), Trk can be made with either one of the two subunits if the other is not available, although TrkG is preferred.

S. mutans [4] = experiment: S. mutans growth with CsCl under differing pH conditions; assay type: cell-based, Streptococcus mutans
S. mutans [5] = experiment: Spiking of exponentially growing S. mutans cultures; assay type: cell-based, Streptococcus mutans; conditions: for doubling time: culture spiked with 100 mM salt in early exponential phase
Experimental: To determine how CsCl affects exponentially growing S. mutans cells, cultures were spiked with CsCl. TS media was prepared as in previous experiments and cultures were started with 0.2% inoculum. The cultures were grown for three and a half hours while monitoring the growth with the OD at 600 nm. When the cultures were in early exponential growth phase, they were spiked with 100 mM CsCl, 100 mM NaCl, or Listerine mouthwash in a 1:10 or 1:100 dilution in TS media.

S. mutans [6] = conditions: previous study, cited from earlier work
[7] = 0, 25, 50 and 100 mM cesium salt

Compound: [Cs+].[F-] [Cesium fluoride]
- inhibition of S. mutans growth [1, 7]: little to no inhibition

Compound: O=C[O-].[Cs+] [Cesium formate]
- inhibition of S. mutans growth [1, 7]: little to no inhibition

Compound: [Cs+].[OH-] [Cesium hydroxide]
- inhibition of S. mutans growth ([1]; 50 mM or greater, due to increase in pH): inhibited cultures completely
- pH of the media (50 mM): 9.5
- pH of the media (100 mM): 12.5

Compound: [Cs+].[I-] [Cesium iodide]
- inhibition of S. mutans growth [1, 7]: little to no inhibition

Compound: O=[N+]([O-])[O-].[Cs+] [Cesium nitrate]
- inhibition of culture growth rates [1]: roughly 30%

Compound: O=S(=O)([O-])[O-].[Cs+].[Cs+] [Cesium sulfate]
- inhibition of S. mutans growth ([1]; concentrations of 50 mM or below): not inhibitory

Compound: [Cl-].[Cs+] [CsCl, cesium chloride]
- maximum yield ([1]; 0, 5, 10 and 25 mM CsCl cultures, OD 600 nm): 0.9 OD units
- doubling time ([1]; 5 mM CsCl, NaCl added to 100 mM total supplemental cation): 1.06 h
- doubling time ([1]; 10 mM CsCl, NaCl added to 100 mM total supplemental cation): 0.94 h
- doubling time ([1]; 25 mM CsCl, NaCl added to 100 mM total supplemental cation): 1.17 h
- doubling time ([1]; 50 mM CsCl, NaCl added to 100 mM total supplemental cation): 1.54 h
- doubling time ([1]; 75 mM CsCl, NaCl added to 100 mM total supplemental cation): 2.37 h
- doubling time ([1]; 100 mM CsCl): 4.17 h
- growth of S. mutans ([1]; 100 mM CsCl culture): almost completely inhibited
- colonies on TS-agar plate [1]: thin translucent colonies after a week
- Minimum Inhibitory Concentration (MIC) [1]: 61.2 mM
- doubling time ([2]; all CsCl concentrations tested (0-100 mM)): approximately 1 h
- effect on growth rate ([2]; concentrations as high as 100 mM CsCl, LB media): minimal effect
- inhibition of mutants ([3]; 0, 50 or 100 mM CsCl in LB broth): some inhibition
- reduction in growth rate ([3]; 100 mM CsCl vs control with 100 mM NaCl, most inhibited cultures): roughly one third
- doubling time (S. mutans [4]; 25 mM CsCl, pH 7.00): 52 min
- inhibition (S. mutans [4]; 25 mM CsCl, pH 7.25): No inhibition
- doubling time (S. mutans [4]; 25 mM CsCl, pH 8.33): 64 min
- increase of doubling time (S. mutans [4]; 25 mM CsCl, pH 8.33 vs pH 7.00): 25%
- inhibition relative to neutral pH (S. mutans [4]; 100 mM, pH 8.33): more inhibitory
- inhibition relative to neutral or basic pH (S. mutans [4]; pH 4.50): less inhibitory
- inhibition relative to other pH tested (S. mutans [4]; pH 8.33): strongest inhibition
- doubling time (S. mutans [5]): 2.49 h

Compound: [Cl-].[Na+] [NaCl, sodium chloride]
- doubling time ([1]; 100 mM NaCl (presented as 0 mM CsCl)): roughly 1 hour
- colonies on TS-agar plate [1]: small opaque white colonies overnight
- yield (S. mutans [5]; 100 mM spiked control): 0.9 OD units
- doubling time (S. mutans [5]): 1.21 h

Compound: [Na+].[OH-] [NaOH, sodium hydroxide]
- pH of the media (50 mM): 9.5
- pH of the media (100 mM): 12.5

Compound: O=C([O-])O.[Na+] [sodium bicarbonate]
- completely inhibitory concentration (S. mutans [6]; 8% w/v converted): ~950 mM
- completely inhibitory concentration (S. mutans [6]): 8 % w/v

Compound: O=[N+]([O-])[O-].[Na+] [sodium nitrate]
- inhibition of culture growth rates [1]: roughly 30%

Compound: cesium bicarbonate
- inhibition of S. mutans growth ([1]; 50 mM): increased inhibition
- inhibition of S. mutans growth ([1]; 100 mM): complete inhibition
- Minimum Inhibitory Concentration (MIC) [1]: 40.5 mM
- inhibition compared with sodium bicarbonate control ([1]; concentrations less than 45 mM): not significantly different
- inhibition compared with sodium bicarbonate control ([1]; concentrations of 45 mM or greater): inhibited S. mutans growth more than the control cultures
- MIC lower than the MIC for CsCl by ([1]; difference of MIC values): more than 20 mM
